Test results published in patent publication US6342531B1, “Pharmaceutical composition containing a cysteine protease inhibitor for prophylaxis and therapy of brain tissue impairment” (Senju Pharmaceutical Co., Ltd., priority 1998, dated 2002).
Non-standard residues stand in square brackets, D forms with d. Residues, ends and D or L forms follow the SMILES beside them. *: point of attachment. Nle = CCCC[C@H](N)C(=O)O; Cbz = O=C(OCc1ccccc1)*

Columns and labels:
[1] = Toxicity study, single oral dose, 14-day observation; type: in vivo, Wister rats; conditions: rat, oral 1000 mg/kg
Protocol: Five-week-old Wister rats (male, body weights 80-105 g) were orally given a 3.3 w/v % suspension of Compound 1 in 0.5 w/v % carboxymethylcellulose in a dose of 1000 mg as Compound 1 per kg body weight. […] Body weights were recorded before dosing and once daily for 14 days after dosing. Autopsy was performed after sacrifice by exsanguination under ether anesthesia after 14 days and the organs were grossly examined. The control group received 0.5 w/v % carboxymethylcellulose.

[2] = system: nerve cells in the hippocampal CA1 region; assay: Effect on ischemic disorder of the brain: bilateral common carotid artery occlusion, nerve cell counts in hippocampal CA1 region; type: in vivo; conditions: gerbil, 10 min ischemia, 100 mg/kg intraperitoneally 15 min before ischemia, immediately after reperfusion, then once daily, counted 5 days after reperfusion; for ischemia-induced decrease in the number of normal nerve cells in the hippocampal CA1 region: FIG. 1; for ischemia-induced increase in the number of apoptotic nerve cells in the hippocampal CA1 region: FIG. 2
Protocol: The bilateral common carotid arteries of gerbils (male, body weights 60-80 g) were exposed under ether anesthesia. Then, in a conscious state, the carotid arteries were occluded with aneurysm clips to arrest the blood flow for 10 minutes. Ischemia was confirmed by checking the arrest of retinal blood flow with a blood flow meter (Advance laser flow meter (ALF21N), Advance Co. Ltd.) and observation of ischemic symptoms such as seizure, circling, and ptosis. After removal of the clips, reperfusion was confirmed with the blood flow meter. Five days after reperfusion, the animal was anesthetized with ether and was perfused with saline through the left ventricle for removal of blood and further with 4% formaldehyde for fixation of the brain tissue. The tissue was embedded in paraffin and thin sections were prepared and stained with hematoxylin-eosin in the routine manner. The nerve cells in the hippocampal CA1 region were observed under a light microscope and the normal nerve cells remaining in a 1.0 mm span of the hippocampal CA1 region were counted. Separately, using Apoptosis in situ Detection Kit Wako (Wako Pure Chemical Ind., Ltd.), the apoptosis in the paraffin-embedded brain tissue specimen was detected and using the light microscope, the apoptotic nerve cells per 1.0 mm span of the hippocampal CA1 region were counted.
In the normal group, the common carotid arteries were exposed but no ischemia was introduced. As the test drug, a parenteral suspension prepared as in Example 3 was administered intraperitoneally in a dose of 100 mg Compound 1 per kg body weight 15 minutes before ischemia, immediately after reperfusion, and thereafter once daily (Compound 1 administration group). In the control group and normal group, the vehicle used in Example 3 was similarly administered. As a positive control, Cbz-Val-Phe-H [MDL; S. C. Hong et al., Stroke, 25 (3), 663-669 (1994)], 100 mg/kg body weight, was similarly administered (MDL administration group).

[3] = system: cytopathy due to cerebral ischemia; conditions: rats, administered intravenously; cited from earlier work
neurons [4] = conditions: administered intraperitoneally; cited from earlier work
neurons [5] = conditions: directly administered into the animal cerebral ventricle; cited from earlier work

CC(C)C[C@@H](C=O)NC(=O)[C@@H](NS(=O)(=O)c1ccc(F)cc1)C(C)C [Compound 1, N-(4-fluorophenylsulfonyl)-L-valyl-L-leucinal]
body weight gain versus control group ([1]; 14 days): no difference
autopsy findings versus control group ([1]; autopsy after 14 days): no difference
general condition and behavior ([1]; observed 14 days): no change
ischemia-induced decrease in the number of normal nerve cells in the hippocampal CA1 region [2]: significantly inhibited
ischemia-induced increase in the number of apoptotic nerve cells in the hippocampal CA1 region [2]: significantly inhibited

CC(C)[C@H](NC(=O)OCc1ccccc1)C(=O)N[C@H](C=O)Cc1ccccc1 [MDL, Cbz-Val-Phe-H] (Cbz-Val-Phe-aldehyde)
cytopathy due to cerebral ischemia [3]: inhibited cytopathy
ischemia-induced decrease in the number of normal nerve cells in the hippocampal CA1 region [2]: little inhibitory effect
ischemia-induced increase in the number of apoptotic nerve cells in the hippocampal CA1 region [2]: little inhibitory effect

CCCC[C@@H](C=O)NC(=O)[C@H](CC(C)C)NC(=O)[C@H](CC(C)C)NC(C)=O [calpain inhibitor I] (Ac-Leu-Leu-[Nle]-aldehyde)
protection of neurons from excitotoxic factors (neurons [4]): protect neurons from excitotoxic factors

CC(=O)N[C@@H](CC(C)C)C(=O)N[C@@H](CC(C)C)C(=O)N[C@H](C=O)CCCNC(=N)N [leupeptin]
protection of neurons against damage by cerebral ischemia (neurons [5]): protects neurons against damage
